Source: patent US9241920B2, “Inhibition of c-Myc ubiquitination to prevent cancer initiation and progression” (NEW YORK UNIVERSITY, priority 2011, dated 2016)

Assays:
[1] = test system: human CD34+Lin- cells (CML patients) depleted of Fbw7; test: Colony forming unit assay of Fbw7-depleted human CML CD34+ cells; format: cell-based; details: human CD34+ cells after depletion of Fbw7; decrease of c-Myc activity
Method: For the in vitro CFU experiments, mice received 5 intra-peritoneal (IP) injections of poly(I:C) at a dose of 20 ug/g, and LSK cells were purified 10 days post poly(I:C). LSK cells were purified and infected with Bcr-Abl-NGFR or Bcr-Abl-GFP retrovirus as described above. Bcr-Abl^+ lineage negative cells were sorted 72 hours after the first infection and 1000 cells were seeded into cytokine-supplemented methylcellulose medium (MethoCult 3434, Stem Cell Technologies). Colonies were counted 7 days after they were seeded and 4000 cells were re-plated and colonies were counted after another 7 days (14 days total). For human CFU assay, cells were collected after 7 days of culture, and 1×10^3 CD34^+Lin^− cells were transferred to Methocult medium (MethoCult GF H4435, StemCell Technologies). The number of colonies was counted 1 week after plating.
Viable bone marrow mononuclear cells from two treatment-naïve patients in the chronic phase of CML were obtained from AllCells. […] For assays of apoptosis, cells were collected after 7 days of culture, stained for cell surface markers, further incubated for 15 min with annexin V (BD Biosciences) and then analyzed by flow cytometry.

[2] = test system: human CD34+ cells (CML patients) depleted of Fbw7; test: Apoptosis (annexin V staining) of Fbw7-depleted human CML CD34+ cells; format: cell-based; details: human CD34+ cells after depletion of Fbw7; decrease of c-Myc activity
Method: Viable bone marrow mononuclear cells from two treatment-naïve patients in the chronic phase of CML were obtained from AllCells. To examine the role of FBW7 in the maintenance of LICs for human CML, bone marrow mononuclear cells were transfected with 300 nM FBW7 siRNAs (Stealth Select RNAi siRNA, Invitrogen) by electroporation with the use of an Amaxa Nucleofector II device (Lonza) according to the manufacture's instructions. The transfected cells were then stained with antibodies to human CD34 (8G12), CD3 (SK7), CD16 (3G8), CD19 (SJ25C1), CD20 (L27), CD14 (MφP9), and CD56 (NCAM16.2) (BD Biosciences). CD3, CD16, CD19, CD20, CD14, and CD56 were used as lineage markers. CD34^+Lin^− cells were purified by FACS and cocultured with OP-9 cells for 7 days. For assays of apoptosis, cells were collected after 7 days of culture, stained for cell surface markers, further incubated for 15 min with annexin V (BD Biosciences) and then analyzed by flow cytometry.

CCc1ccc(/C=C2/SC(=S)NC2=O)cc1 [10058-F4]
colony forming ability of Fbw7-depleted cells [1]: rescued
apoptosis of Fbw7-depleted cells [2]: rescued cells from apoptosis
